Residues, ends and D or L forms follow the SMILES beside them. *: point of attachment. Cbz = O=C(OCc1ccccc1)*; Boc = CC(C)(C)OC(=O)*; OBn = c1ccc(CO*)cc1
Row | Structure (SMILES) | melting point [°C]
1 | C#CCCCOc1cc(/C=C/C(=O)Nc2ccccc2C(=O)O)ccc1OC | 154 to 156
2 | CCCCc1nn(-c2cc([N+](=O)[O-])ccc2Cl)c(=O)n1Cc1ccc(-c2cc(CCC)ccc2S(=O)(=O)NC(C)(C)C)cc1F | 84 to 86
3 | COc1ccccc1SC(CC(C)C)c1c(O)cc(-c2ccccc2)oc1=O (configuration not stated) | 75 to 78
4 | O=C(CBr)C1=NO[C@@H](c2ccccc2)C1 | 31 to 33
5 | CCOC(=O)C(F)(F)C(O)C(CC(C)C)NC(=O)OC(C)(C)C (configuration not stated) | 72 to 76
6 | CCOc1ccc(F)cc1C(C)(C)CC(O)(Cn1ccc(=O)c2ccccc21)C(F)(F)F (configuration not stated) | 195 to 196
7 | CCCCCCCN(CC)CCC(O)c1ccc(NS(C)(=O)=O)cc1 (configuration not stated) | 74 to 75
8 | CC1=NC(NCc2ccc(O)c(OC(F)F)c2)C(C)(Cl)C=N1 (configuration not stated) | 167 to 168
9 | O=C1CN=C(c2ccccc2F)c2cc(Cl)ccc2N1 | 206 to 207
10 | CCCc1c(OCC(O)CS(=O)(=O)c2ccc(CC(=O)OC)c(F)c2)ccc(C(C)=O)c1O (configuration not stated) | 118 to 119
11 | CCN(CC)CCNc1cccc2c1C(=O)c1c(NCCN(CC)CC)cccc1C2=O | 104 to 106
12 | O=C(O)CC(Sc1cccs1)C(=O)O (configuration not stated) | 136 to 138
13 | CC(C)[Si](C)(C)CCSCCCNC(=O)n1cc(F)c(=O)[nH]c1=O | 122 to 123
14 | COc1ccc(C=CC(=O)CC(=O)C=Cc2ccc(OC)cc2)cc1 | 154 to 155
15 | COc1ccccc1-c1cc(C(C)(C)C)c(O)c(C(C)(C)C)c1 | 98.5 to 100
16 | O=C(c1cc(Cc2ccccc2)cc(Cn2ccnc2)c1)c1cc(Cl)c2cccnc2c1O | 148 to 150
17 | CC(=O)C=C1C=C(C(C)(C)C)C(=O)C(C(C)(C)C)=C1 | 70 to 72
18 | COc1cc(N)c(Cl)cc1C(=O)NCCN(C)C1CC1 | 164 to 165
19 | COCc1nc2c(OC)c3c(=O)n(C)c(COC)nc3c(OC)c2c(=O)n1C | 223 to 224
20 | O=C1c2ccccc2C(=O)N1CC(Cc1c[nH]c([N+](=O)[O-])n1)ON1C(=O)c2ccccc2C1=O (configuration not stated) | 119 to 121
21 | CC(C)(F)CC(=O)c1cc(C(C)(C)C)c(O)c(C(C)(C)C)c1 | 94
22 | CN1C(=O)Cc2cc(CBr)cnc21 | 65

Row | Structure (SMILES) | melting point [°C]
23 | CSCCC(NC(=O)OC(C)(C)C)C(=O)NC(C)C(=O)NC(C(=O)NC(CCCCNC(=O)OCc1ccccc1)C(=O)OCc1ccccc1)C(C)C (configuration not stated) (Boc-MAVK(Cbz)-OBn; configuration not given here) | 169 to 171
24 | O=C(CCCCCC1(C(=O)O)CCCC1)CCCCCC1(C(=O)O)CCCC1 | 78 to 85
25 | CC(C)n1cc(C(=O)C(F)(F)F)c2ccc(C(F)(F)F)cc21 | 92 to 93
26 | CC(C)(O)c1cc(Br)ccc1NC(=O)CCl | 133 to 134
27 | CC1c2ccccc2C=Cn2c1n[nH]c2=O (configuration not stated) | 119 to 120
28 | CC(=O)Oc1ccc(C=Cc2cc(OC(C)=O)c(OC(C)=O)c(OC(C)=O)c2)cc1 | 162 to 163
29 | O=C(CCc1ccccc1)C(Cc1ccccc1)(Cc1ccccc1)C(=O)CCc1ccccc1 | 84 to 86
30 | Cc1cccc(NC(=O)NCC(=O)N(CC(=O)N(C)c2ccc(F)cc2)c2ccccc2)c1 | 135
31 | CN(C)C=Nc1nc2ncn(C)c(=S)n2n1 | > 300
32 | O=C1c2c(Cl)cccc2-n2cnc(-c3nc(CN4CCCC4)cs3)c2[C@@H]2CCCN12 | 213 to 214
33 | COCCSc1sc(-c2cc[nH]n2)c2c1C(=O)CC(C)(C)C2 | 159 to 162
34 | CC(CC=Cc1ccccc1)C1CC=C2C3=C(CCC21C)C1(C)CCC(O)C(C)(C)C1CC3 (configuration not stated) | 127
35 | CCNc1nc(Cl)c(Br)c(NC2CC2)n1 | 100 to 101
36 | NC(=O)c1cc(F)c(F)c(Cl)c1Cl | 153 to 155
37 | COc1cc2c3ccc(OC)c(OC)c3n(S(=O)(=O)c3ccc([N+](=O)[O-])cc3)c2cc1OC | 188 to 189
38 | CN(C)c1nc(O)ns1 | 142
39 | CC1(C)C=C(c2ccccn2)c2cc(Cl)c(Cl)cc2OC1 | 98
40 | CNC(=O)c1ccc(C)c(-n2c(C)cc(OCc3ccccc3CNC(=O)Nc3cc(C(C)(C)C)nn3-c3ccc(O)c(Cl)c3)c(Cl)c2=O)c1 | 201 to 203
41 | Cc1cc(OCc2ccccc2)cc(=O)o1 | 90 to 91
42 | CC(=O)n1nc(-c2c(C)cc(C)c([N+](=O)[O-])c2C)n2nc(C(C)(C)C)c(Cl)c12 | 188 to 191
43 | Clc1ccc(C(Br)Br)c(C(Br)Br)c1 | 108 to 111

Results, then the molecule that gave them:

Row | melting point [°C] | Structure (SMILES)
44 | 215 to 217 | CCN(CC)c1nc2ncnn2c2c1cnc1c2cnn1CC
45 | 162 to 164 | CCN(C)c1cc(Br)cc(S(=O)(=O)c2ccc(N)cc2)c1
46 | 60 | COc1ccc(-c2c(C)c3cc(OC)ccc3n2CCCCCCBr)cc1
47 | > 300 | Cc1nc(N)nc(N)c1N1CCN(c2ccc(C#N)cc2)CC1
48 | 190 to 192 | O=C(CCCN1CCC(c2ccccc2)CC1)c1ccc2c(c1)Cc1cc(C(=O)CCCN3CCC(c4ccccc4)CC3)ccc1-2
49 | 120 to 122 | CCOC(=O)Cc1c(-c2ccc(Cl)cc2)nn(-c2ccccc2)c1-c1ccc(Cl)cc1
50 | 115 to 116 | COc1ccc(Cn2cnc3c(-c4ccco4)nc(C4CC4)nc32)cc1
51 | 180 | Cc1nc2c3c(ccn2c1C)[C@@H](O)[C@@](C)(O)[C@@H](c1ccccc1)N3
52 | 137 to 139 | CCCc1nc(NC(=N)N)sc1-c1cccc([N+](=O)[O-])c1
53 | 178 to 179 | Cc1nc(-n2cnn(Cc3ccc(F)cc3)c2=O)sc1C(=O)NCc1cc[nH]n1
54 | 167 to 168 | COC(=O)C(c1cccc(Br)c1)c1ncnc2cc(OC)c(OC)cc12 (configuration not stated)
55 | 150 to 151 | Cc1ccc(C(O)(Cc2nnnn2C)c2ccc(C)cc2F)c(F)c1
56 | 171 to 172 | CC(CNc1ccc(C(=O)O)cc1)Oc1ccc(F)cc1 (configuration not stated)
57 | 145 to 146 | N#Cc1c(F)cccc1Nc1c(F)cccc1F
58 | 107 | N#CC1(C(O)(Cn2cncn2)c2ccc(Cl)cc2)CC1 (configuration not stated)
59 | 144 | O=C(/C=C/c1c(F)cccc1Cl)/C=C/c1c(F)cccc1Cl
60 | 138 to 140 | COC(=O)Nc1cc(Oc2ccc3c(ccn3C(=O)Nc3ccc(CN4CCN(C)CC4)c(C(F)(F)F)c3)c2)ncn1
61 | 288 to 292 | Cn1cc(C(N)=O)c(=O)c2ccc(C(F)(F)F)cc21
62 | 155 to 157 | CC(=O)OCC1OC(n2c(Cl)nc3ccc(Cl)cc32)C(OC(C)=O)C1OC(C)=O (configuration not stated)
63 | 129 to 138 | N#Cc1c(OCCOc2ccccc2)cccc1[N+](=O)[O-]
64 | 182 to 183 | COc1cc(Nc2nccc(-c3nc4ccccc4s3)n2)cc(OC)c1OC
65 | 88 to 92 | O=C(O)C1Cc2ccccc2N1S(=O)(=O)c1ccc(-c2ccc(F)cc2F)cc1 (configuration not stated)
66 | 193 to 194 | Cc1c(-c2ccccc2)oc2c(C(=O)NCCCCl)cccc2c1=O
67 | 275 to 277 | COc1cc(OC)c2c(=O)[nH]c(-c3ccc(CN4CCN(C)CC4)cc3)nc2c1
68 | 159 to 160 | O=c1ccn(-c2cccc(OC(F)F)c2)nc1-c1ccnn1-c1ccccc1
69 | 161 to 162 | CN(C)CCNC1=C(Br)C(=O)c2sc(C(=O)N3CCN(C(=O)C4CCCO4)CC3)nc2C1=O (configuration not stated)
70 | 158 | CN(C)CC1CCN(c2nc(N3CCOCC3)c3ncnc(N(C)Cc4cccc5ccccc45)c3n2)CC1

Row | melting point [°C] | Structure (SMILES)
71 | 138 to 140 | N#Cc1n[nH]c2ccccc12
72 | 143 to 144 | CCCn1nc2c(N)nc3ccccc3c2c1CCNC(=O)OCC
73 | > 300 | CCn1c(-c2sc(NC(=O)c3ccncc3)nc2-c2ccco2)cccc1=O
74 | 158 to 162 | Cc1ccc(C)c2c(C=O)c3ccccc3c(C=O)c12
75 | 328 to 331 | Cc1cc(-c2c(F)cc3c(=O)c(C(=O)O)cn4c3c2SC[C@@H]4C)cc(C)n1
76 | 121 to 123 | O=C1OC(CCl)CN1c1ccc(S(=O)(=O)C(F)(F)F)cc1 (configuration not stated)
77 | 118 to 120 | CN(C)C=Nc1c(Cl)cc(NCc2ccc(N(C)C)cc2F)cc1Cl
78 | 65 to 66 | O=CN1CCc2ccccc2CC1
79 | 73 to 74 | COc1cc(C#N)cc2c1OC(C)(C)C2
80 | 154 to 155 | CC(=O)Nc1ccc(F)c(-c2cccnc2)c1F
81 | 215 to 216 | CCOCc1nc2c(N)nc3ccccc3c2n1Cc1cc(-c2ccccc2)no1
82 | 182 to 184 | CC1=CC(C)(C)Nc2ccc(O)cc21
83 | 112 | CCCCCCCCCC(=O)OCc1cccn2c(=O)c(CCN3CCC(N4Cc5ccc(F)cc5O4)CC3)c(C)nc12
84 | 103 to 104 | C=CC(=O)NC(C)c1ccc(Cl)cc1 (configuration not stated)
85 | 177 to 178 | Cc1nc2scc(C)n2c1S(N)(=O)=O
86 | 220 to 222 | Cc1oc(-c2ccccc2)nc1CCOc1ccc(C[C@@H](C(=O)O)N2CCN(c3ccccc3)CC2)cc1Br
87 | 143 | COC(=O)c1c(C)cn2cc(OCc3ccccc3)ccc12
88 | 70 to 84 | COc1cc2c(cc1Nc1ncc(Cl)c(Nc3ccccc3S(=O)(=O)N3CCC(O)C3)n1)CCN(CC(=O)N(C)C)CC2 (configuration not stated)
89 | 155 to 158 | CCCC(c1ccc(C(=O)O)cc1OCc1ccc(Br)cc1)n1ccnc1 (configuration not stated)
90 | 139 to 140 | CC(C)CNCC(=O)Nc1cccc2c1C(=O)c1c(NC(=O)CNCC(C)C)cccc1C2=O
91 | 292 to 294 | CCCCn1c(=O)c2c(NC)n[nH]c2n(Cc2ccc(OC)cc2)c1=O
92 | 166 to 167 | Clc1ccc(C2Cc3cnc(Nc4ccc(CCN5CCOCC5)cc4)nc3-c3ccccc32)cc1Cl (configuration not stated)
93 | 220 to 221 | Cc1cc(OCc2cccc(C(=O)O)c2)c([N+](=O)[O-])cc1S(=O)(=O)N(C)C
94 | 148 | COc1ccc(C2=C(c3ccc(S(C)(=O)=O)cc3)C(C)(C)OC2=O)cc1
95 | 138 | Cc1nc2nccc(C(C)Oc3ccc(Cl)cc3)n2n1 (configuration not stated)
96 | 167 to 169 | COc1ccc(CSc2cccc(C(=O)Nc3ccc(C#N)cc3)c2)cc1
97 | 133 | Cc1cc(Oc2cc(C(F)(F)F)nn2C)nc(C(=O)Nc2ccc(F)cc2)c1

Reference: a melting point compilation (Tetko et al.; mined from patent text by program, amines drawn as free bases though some values may be those of a salt)
